We go through 1 compound from US20080108513A1, “Cellular Arrays” (Northwestern University, priority 2006, published 2008).

Each structure is given as a SMILES string.

The target of the assay is T1, ERα (Homo sapiens, UniProt P03372).
T1 sequence (P03372 1-595): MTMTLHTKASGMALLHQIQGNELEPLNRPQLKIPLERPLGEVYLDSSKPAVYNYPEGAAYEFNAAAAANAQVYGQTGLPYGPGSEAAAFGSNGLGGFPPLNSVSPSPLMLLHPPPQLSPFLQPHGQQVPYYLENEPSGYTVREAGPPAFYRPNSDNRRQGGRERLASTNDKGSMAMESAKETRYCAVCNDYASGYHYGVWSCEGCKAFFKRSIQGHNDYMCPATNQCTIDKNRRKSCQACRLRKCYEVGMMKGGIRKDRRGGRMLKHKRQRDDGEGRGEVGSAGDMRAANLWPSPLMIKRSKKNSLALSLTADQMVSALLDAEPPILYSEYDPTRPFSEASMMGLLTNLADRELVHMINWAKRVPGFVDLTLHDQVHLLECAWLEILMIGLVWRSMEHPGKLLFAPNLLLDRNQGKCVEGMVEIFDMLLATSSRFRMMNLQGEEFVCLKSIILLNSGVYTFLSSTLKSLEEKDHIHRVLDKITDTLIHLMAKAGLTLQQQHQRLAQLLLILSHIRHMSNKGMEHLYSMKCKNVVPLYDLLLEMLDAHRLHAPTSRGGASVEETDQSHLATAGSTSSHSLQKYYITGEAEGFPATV

On to `C[C@]12CC[C@@H]3c4ccc(O)cc4C[C@@H](CCCCCCCCC[S+]([O-])CCCC(F)(F)C(F)(F)F)[C@H]3[C@@H]1CC[C@@H]2O` (some centres unmarked) [FUL, fulvestrant], for which the “blockade of ERα-stimulated activity by E2” value (10^−6 M FUL with 10^−9 M E2, MCF-7 cells on array) is recorded as “complete blockade”. For the same compound, for the setting “MCF-7 cells on array, 10^−9 M E2 or 10^−9 M E2+10^−6 M FUL”, the “effect on expression of the pLUC plasmid (CMV promoter)” value is listed as “lowered”.
